Here are results for 19 compounds from patent US20250230147A1, “LACTAMS AS CBL-B INHIBITORS” (Genentech, Inc., priority 2021, published 2025).

One assay has as its target Cbl-b (Homo sapiens (Human), UniProt Q13191). In words: Cbl-b LCK Ub TR-FRET assay (Cbl-b Lck HTRF). The class given is biochemical. The procedure, abridged: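 TR-FRET (340 nm excitation, 615/665 nm emission) read after adding HA-ubiquitin–UBE2D2 thioester, anti-HA-D2 and streptavidin-Eu. Beforehand, compounds incubated 60 min with biotinylated Cbl-b, then 90 min with His-LCK and ATP (1 mM in 2× mix); IC50 from 10 concentrations, DMSO high and no-LCK low controls.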
(In general: TR-FRET usually uses a lanthanide donor and a delayed reading to cut background.)

In another assay the target is c-Cbl (Homo sapiens (Human), UniProt P22681). In words: C-Cbl LCK Ub TR-FRET assay (c-cbl Lck HTRF). The note with it: for (fold-selectivity): C-cbl Lck HTRF IC50 relative to Cbl-b Lck HTRF IC50. The format is biochemical. The procedure, abridged:
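Detection reagents added, brief spin, 20 min RT. IC50 fit normalized to no-LCK (low) and DMSO (high) controls.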

Chain of Cbl-b (Q13191 40-426): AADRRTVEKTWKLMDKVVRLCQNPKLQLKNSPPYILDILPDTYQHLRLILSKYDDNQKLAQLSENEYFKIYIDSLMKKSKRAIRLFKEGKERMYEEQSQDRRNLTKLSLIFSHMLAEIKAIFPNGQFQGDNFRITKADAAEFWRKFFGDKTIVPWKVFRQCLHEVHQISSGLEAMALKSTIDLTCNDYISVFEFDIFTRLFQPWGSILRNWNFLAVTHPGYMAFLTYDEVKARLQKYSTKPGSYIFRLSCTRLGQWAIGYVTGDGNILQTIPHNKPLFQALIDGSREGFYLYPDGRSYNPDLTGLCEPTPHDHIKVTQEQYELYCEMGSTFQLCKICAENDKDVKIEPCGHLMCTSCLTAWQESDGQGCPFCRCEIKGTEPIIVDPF
Chain of c-Cbl (P22681 47-435): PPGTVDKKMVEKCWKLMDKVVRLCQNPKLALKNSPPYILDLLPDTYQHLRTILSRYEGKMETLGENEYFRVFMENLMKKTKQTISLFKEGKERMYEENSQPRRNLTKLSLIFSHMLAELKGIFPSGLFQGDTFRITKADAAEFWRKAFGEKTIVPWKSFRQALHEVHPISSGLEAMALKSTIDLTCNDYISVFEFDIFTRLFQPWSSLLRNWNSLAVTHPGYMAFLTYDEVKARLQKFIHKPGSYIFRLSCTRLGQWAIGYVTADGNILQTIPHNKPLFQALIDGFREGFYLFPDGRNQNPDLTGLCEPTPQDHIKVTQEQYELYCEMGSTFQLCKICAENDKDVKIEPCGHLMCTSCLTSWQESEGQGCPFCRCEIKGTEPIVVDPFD

As a reminder, the IC50 is the point on the concentration scale where inhibition reaches its midpoint. A low value points to greater potency. Compound `Cn1cnnc1CC1(c2cc(OC3CCCC3)cc(N3Cc4c(cc(CNC5(C)CCC5)cc4C(F)(F)F)C3=O)c2)COC1` [Compound 479, 2-(3-(cyclopentyloxy)-5-(3-((4-methyl-4H-1,2,4-triazol-3-yl)methyl)oxetan-3-yl)phenyl)-6-(((1-methylcyclobutyl)amino)methyl)-4-(trifluoromethyl)isoindolin-1-one] returned a concentration for half-maximal inhibition (IC50) against Cbl-b of 180 nM. In addition, on c-Cbl, the IC50 stood at 290 nM and the “(fold-selectivity)” value is on record as “(1.6x)”.
Regarding `Cn1cnnc1[C@H](F)C1(c2cccc(N3Cc4c(cc([C@@H](N)C5CCC5)cc4C(F)(F)F)C3=O)c2)COC1` [Compound 391, 6-((S)-amino(cyclobutyl)methyl)-2-(3-(3-((R)-fluoro(4-methyl-4H-1,2,4-triazol-3-yl)methyl)oxetan-3-yl)phenyl)-4-(trifluoromethyl)isoindolin-1-one], at Cbl-b, inhibition was half-maximal at 33 nM (IC50). Moreover, on c-Cbl, half-maximal inhibition (IC50) was put at 63 nM and the “(fold-selectivity)” value is recorded as “(1.9x)”.
As to `Cn1cnnc1[C@@H](F)C1(c2cccc(N3Cc4c(cc(CN5CCC[C@H](CO)C5)cc4C(F)(F)F)C3=O)c2)COC1` [Compound 144, 2-(3-(3-((S)-fluoro(4-methyl-4H-1,2,4-triazol-3-yl)methyl)oxetan-3-yl)phenyl)-6-(((S)-3-(hydroxymethyl)piperidin-1-yl)methyl)-4-(trifluoromethyl)isoindolin-1-one], the IC50 against Cbl-b is 72 nM; against c-Cbl it was 66 nM. Also, the “(fold-selectivity)” value on c-Cbl was determined as 0.91x.
Turning to `Cn1cnnc1[C@H](F)C1(c2cccc(N3Cc4c(cc(CN5CC6(C5)CS(=O)(=O)C6)cc4C(F)(F)F)C3=O)c2)COC1` [Compound 181, (R)-6-((2,2-dioxido-2-thia-6-azaspiro[3.3]heptan-6-yl)methyl)-2-(3-(3-(fluoro(4-methyl-4H-1,2,4-triazol-3-yl)methyl)oxetan-3-yl)phenyl)-4-(trifluoromethyl)isoindolin-1-one], the IC50 against Cbl-b stood at 52 nM. For the same compound, at c-Cbl, the IC50 was 110 nM and the “(fold-selectivity)” value worked out at 2.1x.
On to `CC(C)[C@H]1CN(Cc2cc3c(c(C(F)(F)F)c2)CN(c2cccc(C4(Cc5nncn5C)CC(F)(F)C4)c2)C3=O)CCN1C` [Compound 439, (S)-2-(3-(3,3-difluoro-1-((4-methyl-4H-1,2,4-triazol-3-yl)methyl)cyclobutyl)phenyl)-6-((3-isopropyl-4-methylpiperazin-1-yl)methyl)-4-(trifluoromethyl)isoindolin-1-one], for which the IC50 on Cbl-b was determined as 12 nM; on c-Cbl it was 7.1 nM. Further, the “(fold-selectivity)” value at c-Cbl is “(0.58x)”.
For `CC(C)[C@@H]1CN(Cc2cc3c(c(C(F)(F)F)c2)CN(c2cccc(C4(Cc5nncn5C)CC(F)(F)C4)c2)C3=O)CCN1C` [Compound 438, (R)-2-(3-(3,3-difluoro-1-((4-methyl-4H-1,2,4-triazol-3-yl)methyl)cyclobutyl)phenyl)-6-((3-isopropyl-4-methylpiperazin-1-yl)methyl)-4-(trifluoromethyl)isoindolin-1-one], the IC50 against Cbl-b amounted to 41 nM; against c-Cbl, 32 nM. Besides, the “(fold-selectivity)” value at c-Cbl is “(0.80x)”.
`CC(C)Nc1cc(N2Cc3c(cc(CN4CCN(C)C[C@@H]4C(C)C)cc3C(F)(F)F)C2=O)cc(C2(Cc3nncn3C)CCC2)c1` [Compound 408, (S)-6-((2-isopropyl-4-methylpiperazin-1-yl)methyl)-2-(3-(isopropylamino)-5-(1-((4-methyl-4H-1,2,4-triazol-3-yl)methyl)cyclobutyl)phenyl)-4-(trifluoromethyl)isoindolin-1-one] showed an IC50 against Cbl-b of 13 nM. For the same compound, on c-Cbl, the IC50 was determined as 9.1 nM and the “(fold-selectivity)” value is given as “(0.68x)”.
The like results for `Cn1cnnc1[C@@H](F)C1(c2cccc(N3Cc4c(cc(CN5CCC56COC6)cc4C(F)(F)F)C3=O)c2)COC1` [Compound 176, (S)-6-(6-oxa-1-azaspiro[3.3]heptan-1-ylmethyl)-2-(3-(3-(fluoro(4-methyl-4H-1,2,4-triazol-3-yl)methyl)oxetan-3-yl)phenyl)-4-(trifluoromethyl)isoindolin-1-one] were, in that order, 350 nM, 1300 nM and 3.5x.
The compound `COCC1(O)CN(Cc2cc3c(c(C(F)(F)F)c2)CN(c2cccc(C4([C@H](F)c5nncn5C)COC4)c2)C3=O)C1` [Compound 186, (S)-2-(3-(3-(fluoro(4-methyl-4H-1,2,4-triazol-3-yl)methyl)oxetan-3-yl)phenyl)-6-((3-hydroxy-3-(methoxymethyl)azetidin-1-yl)methyl)-4-(trifluoromethyl)isoindolin-1-one] gave an IC50 on Cbl-b of 110 nM. On c-Cbl, half-maximal inhibition (IC50) required 200 nM and the “(fold-selectivity)” value stood at 1.7x.
Take `Cn1cnnc1[C@H](F)C1(c2cccc(N3Cc4c(cc(CN5CC(C)(O)C5)cc4C(F)(F)F)C3=O)c2)COC1` [Compound 161, (R)-2-(3-(3-(fluoro(4-methyl-4H-1,2,4-triazol-3-yl)methyl)oxetan-3-yl)phenyl)-6-((3-hydroxy-3-methylazetidin-1-yl)methyl)-4-(trifluoromethyl)isoindolin-1-one]: on Cbl-b, the IC50 was determined as 62 nM. Besides, at c-Cbl, half-maximal inhibition (IC50) was put at 110 nM and the “(fold-selectivity)” value came out at 1.7x.
For `CC(C)[C@H]1CN(C)CCN1Cc1cc2c(c(C(F)(F)F)c1)CN(c1cccc(C3([C@H](F)c4nncn4C4CC4)COC3)c1)C2=O` [Compound 487, 2-(3-(3-((S)-(4-cyclopropyl-4H-1,2,4-triazol-3-yl)fluoromethyl)oxetan-3-yl)phenyl)-6-(((S)-2-isopropyl-4-methylpiperazin-1-yl)methyl)-4-(trifluoromethyl)isoindolin-1-one], the IC50 came out at 1800 nM against Cbl-b and 2700 nM against c-Cbl. Moreover, the “(fold-selectivity)” value at c-Cbl is listed as “(1.5x)”.
Take `CC(C)[C@H]1CN(C2CC2)CCN1Cc1cc2c(c(C(F)(F)F)c1)CN(c1cccc(C3([C@@H](F)c4nncn4C)COC3)c1)C2=O` [Compound 405, 6-(((S)-4-cyclopropyl-2-isopropylpiperazin-1-yl)methyl)-2-(3-(3-((R)-fluoro(4-methyl-4H-1,2,4-triazol-3-yl)methyl)oxetan-3-yl)phenyl)-4-(trifluoromethyl)isoindolin-1-one]: on Cbl-b, the IC50 worked out at 18 nM. On c-Cbl, the IC50 was found to be 16 nM and the “(fold-selectivity)” value is given as “(0.91x)”.
In the case of `Cn1cnnc1CC1(c2cc(C3CC3)cc(N3Cc4c(cc(CNC5(C)CCC5)cc4C(F)(F)F)C3=O)c2)COC1` [Compound 472, 2-(3-cyclopropyl-5-(3-((4-methyl-4H-1,2,4-triazol-3-yl)methyl)oxetan-3-yl)phenyl)-6-(((1-methylcyclobutyl)amino)methyl)-4-(trifluoromethyl)isoindolin-1-one], at Cbl-b, the IC50 was 15 nM. On c-Cbl, the IC50 was 13 nM and the “(fold-selectivity)” value is “(0.83x)”.
In the case of `Cn1cnnc1[C@@H](F)C1(c2cccc(N3Cc4c(cc(CN)cc4C(F)(F)F)C3=O)c2)CC(F)(F)C1.O=CO` [Compound 394, (S)-6-(aminomethyl)-2-(3-(3,3-difluoro-1-(fluoro(4-methyl-4H-1,2,4-triazol-3-yl)methyl)cyclobutyl)phenyl)-4-(trifluoromethyl)isoindolin-1-one formate], the IC50 against Cbl-b turned out to be 120 nM; on c-Cbl it was 160 nM. Further, the “(fold-selectivity)” value at c-Cbl is recorded as “(1.3x)”.
On to `Cn1cnnc1C(F)(F)C1(c2cccc(N3Cc4c(cccc4C(F)(F)F)C3=O)c2)CC1` [Compound 49, 2-(3-(1-(difluoro(4-methyl-4H-1,2,4-triazol-3-yl)methyl)-cyclopropyl)phenyl)-4-(trifluoromethyl)isoindolin-1-one], for which the IC50 against Cbl-b turned out to be 1400 nM. Also, on c-Cbl, the IC50 worked out at 2800 nM and the “(fold-selectivity)” value is on record as 2.0x.
Consider `CC(C)Nc1cc(N2Cc3c(cc(CNCC4CC4)cc3C(F)(F)F)C2=O)cc(C2(Cc3nncn3C)CCC2)c1` [Compound 459, 6-(((cyclopropylmethyl)amino)methyl)-2-(3-(isopropylamino)-5-(1-((4-methyl-4H-1,2,4-triazol-3-yl)methyl)cyclobutyl)phenyl)-4-(trifluoromethyl)isoindolin-1-one], for which the IC50 against Cbl-b is 13 nM; at c-Cbl, 8.7 nM. Also, at c-Cbl, the “(fold-selectivity)” value is “(0.70x)”.
With `CSc1cc(C2(Cc3nncn3C)CCC2)cc(N2Cc3c(cc(CNC4(C)CCC4)cc3C(F)(F)F)C2=O)n1` [Compound 251, 2-(4-(1-((4-methyl-4H-1,2,4-triazol-3-yl)methyl)cyclobutyl)-6-(methylthio)pyridin-2-yl)-6-(((1-methylcyclobutyl)amino)methyl)-4-(trifluoromethyl)isoindolin-1-one], at Cbl-b, it took 11 nM to reach half-maximal inhibition (IC50). Also, at c-Cbl, it took 8.4 nM to reach half-maximal inhibition (IC50) and the “(fold-selectivity)” value is recorded as “(0.76x)”.
Compound `Cn1cnnc1[C@@H](F)C1(c2cccc(N3Cc4c(cc(CN5CC6(COC6)C5)cc4C(F)(F)F)C3=O)c2)COC1` [Compound 10, (S)-6-(2-oxa-6-azaspiro[3.3]heptan-6-ylmethyl)-2-(3-(3-(fluoro(4-methyl-4H-1,2,4-triazol-3-yl)methyl)oxetan-3-yl)phenyl)-4-(trifluoromethyl)isoindolin-1-one] came in with an IC50 on Cbl-b of 500 nM. On c-Cbl, the midpoint of inhibition, the IC50, lay at 1100 nM and the “(fold-selectivity)” value came to 2.3x.
The corresponding values for `Cn1cnnc1[C@@H](F)C1(c2cccc(N3Cc4c(cc(CNCC5CC5)cc4C(F)(F)F)C3=O)c2)CC(F)(F)C1` [Compound 450, (S)-6-(((cyclopropylmethyl)amino)methyl)-2-(3-(3,3-difluoro-1-(fluoro(4-methyl-4H-1,2,4-triazol-3-yl)methyl)cyclobutyl)phenyl)-4-(trifluoromethyl)isoindolin-1-one] are 15 nM, 14 nM and “(0.95x)”.
